Results published in publication PMC6320368, “A T-cell receptor escape channel allows broad T-cell response to CD1b and membrane phospholipids” (Nature Communications, 2019).

How the values were obtained:
[1] = target: T1, CD1b (human CD1b monomer with β2m; CD1b tetramer) (Homo sapiens, UniProt P29016); experiment: lipid-loaded CD1b tetramer staining of T-cell lines; assay type: cell-based; conditions: indirect read-out of lipid loading; CHAPS, citrate pH 7.4, 37 °C loading
T1 construct: soluble ectodomain with beta-2-microglobulin; His-tag purified; from High Five insect cells or HEK293S GnTI- (crystals, SPR); tetramer-facility monomers from U293 cells; with Beta-2-microglobulin
T1 sequence (P29016 20-296): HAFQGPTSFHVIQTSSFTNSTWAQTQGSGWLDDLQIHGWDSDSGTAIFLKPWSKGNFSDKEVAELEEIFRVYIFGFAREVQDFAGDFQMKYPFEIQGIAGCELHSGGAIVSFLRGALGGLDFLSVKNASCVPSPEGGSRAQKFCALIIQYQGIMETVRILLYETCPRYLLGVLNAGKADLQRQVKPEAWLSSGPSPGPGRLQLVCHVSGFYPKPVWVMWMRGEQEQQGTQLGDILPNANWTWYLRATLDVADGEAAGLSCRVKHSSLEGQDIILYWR
T1 sequence (P61769 21-119 partner): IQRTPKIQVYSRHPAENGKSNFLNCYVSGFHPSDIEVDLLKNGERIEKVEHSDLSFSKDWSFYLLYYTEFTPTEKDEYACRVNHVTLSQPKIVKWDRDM

[2] = target: T1, CD1b (human CD1b monomer with β2m; CD1b tetramer); experiment: SPR of BC8B TCR on lipid-loaded CD1b; tetramer staining; assay type: binding; conditions: indirect read-out of lipid loading; pH 8.0, 25 °C

In the case of `CCCCCCCC/C=C\CCCCCCCC(=O)OC[C@@H](O)COP(=O)(O)O` [LPA, lysophosphatidic acid], the “lipid-loaded CD1b tetramer staining of T-cell lines” value [1] is reported as “specifically stained with phospholipids carrying small head groups, such as PG and LPA”.
For `CCCCCCCCCCCCC/C=C/[C@@H](O)[C@H](COP(=O)([O-])OCC[N+](C)(C)C)NC(=O)CCCCCCCCCCCCCCC` [SM, sphingomyelin], the “SPR of BC8B TCR on lipid-loaded CD1b; tetramer staining” value [2] was “The BC8B TCR detectably interacted with CD1b presenting the sphingolipid antigens, SM and sulfatide”.
